Test results: PMC9764189 (The Journal of Biological Chemistry, 2022)
Read-outs that look alike come from different tables or passages of the source.

Legend:
[1] = molecular target: MR1 (Homo sapiens, UniProt Q95460); test: biochemical; assay type: binding; settings: for IC50: IC50, 10 nM JYM20, 100 nM MR1-empty, 25 °C, pH 7.5; for Binder category (ligand affinity for MR1): category by IC50
[2] = system: C1R.MR1 cells

Chain of MR1 (Q95460 23-302 limits assumed): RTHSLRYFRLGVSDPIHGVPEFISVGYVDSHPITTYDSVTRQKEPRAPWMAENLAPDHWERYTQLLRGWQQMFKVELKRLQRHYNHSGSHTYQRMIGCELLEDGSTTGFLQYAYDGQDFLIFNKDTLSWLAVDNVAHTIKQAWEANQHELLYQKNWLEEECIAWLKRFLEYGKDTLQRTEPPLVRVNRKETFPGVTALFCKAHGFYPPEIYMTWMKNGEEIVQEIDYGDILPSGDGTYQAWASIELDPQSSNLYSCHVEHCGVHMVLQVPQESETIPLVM
Chain of MR1 (P61769 21-119 partner): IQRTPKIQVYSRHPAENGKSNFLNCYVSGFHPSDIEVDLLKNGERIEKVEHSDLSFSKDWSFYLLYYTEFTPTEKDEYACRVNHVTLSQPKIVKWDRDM

Compound | IC50 [1] [µM] | Upregulation of surface MR1 ([2]; 3 h incubation) | Upregulation of surface MR1 ([2]; 16 h incubation) | Binder category (ligand affinity for MR1) [1] | Concentration at which MR1 was upregulated significantly ([2]; 3 h incubation, versus DMSO) [µM]
O=Cc1cccc(C(=O)O)c1O [3-F-SA, 3-formylsalicylic acid] | 0.563 | – | – | – | –
O=C(O)CCNC(=O)c1cc(=O)[nH]c(=O)[nH]1 [DB28, 3-[(2,6-dioxo-1,2,3,6-tetrahydropyrimidin-4-yl)formamido]propanoic acid] | 20 | – | – | – | –
O=C(O)Cc1ccccc1Nc1c(Cl)cccc1Cl [DCF, diclofenac] | 2600 | – | – | – | –
CCOc1cc(C=O)ccc1O [Ethylvanillin, ethylvanillin] | 325 | upregulated | no noticeable upregulation | – | –
COc1ccc(O)c(C=O)c1 [HMB, 2-hydroxy-5-methoxybenzaldehyde] | 775 | – | – | weak (weak (IC50 > 100 μM)) | –
COc1cc(C=O)ccc1O [Vanillin, vanillin] | 325 | upregulated | modest increase | weak (weak (IC50 > 100 μM)) | 10
